{"source": "patent US20190133518A1", "about": "“METHODS AND SYSTEMS FOR DETERMINING DIURETIC RESPONSE PROFILES” (PACESETTER, INC., priority 2017, published 2019)", "system": "patient", "assay": "Mean PAP measurements of a patient before and after taking medication (Example 1, medication modification)", "type": "in vivo", "excerpt": "In accordance with the present disclosure, an exemplary embodiment is as follows. A patient implanted with CARDIOMEMS, instead of simply providing a single reading each day, provides a reading twice a week (or daily) via the following protocol: First, the patient wakes up in the morning and takes a PAP reading (prior to any medication ingestion). Immediately thereafter, the patient takes all medications, which include HF medications including diuretic(s). A timer goes off in the bed-side monitor (patient home electronics unit), and about sixty minutes later, the patient takes another PAP recording. As noted elsewhere throughout this disclosure, the timing between readings is variable.\nThe protocol based recordings are marked with a unique identifier and transmitted to a database (e.g., Merlin.net database). The protocol based PAP recordings are then used to determine the diuretic response profile of the patient. Specifically, the response profile is determined using PAP measurement data-points at time […] (pre medication) and time (t2) (“x” minutes after medication) and the time constant of the specific diuretic via, for example, a polynomial regression fit. For example, the time constant of furosemide is shorter than the longer acting thiazide diuretic.\nThis example examined the characterization/determination of medication dosage and temporal response in a patient given different kinds of medication. […] The mean PAP measurement of the patient at time (t1) was about 35 mmHg. […].", "data": [{"smiles": "NS(=O)(=O)c1cc(C(=O)O)c(NCc2ccco2)cc1Cl", "note": "[furosemide]", "values": [{"measurement": "average PAP measurement at time (t2)", "setting": "week 1, 80 mg furosemide, about 1 hour after medication (FIG. 6A)", "result": "about 19 mmHg"}, {"measurement": "mean PAP measurement at time (t3)", "setting": "week 1, 80 mg furosemide, about 2 hours after medication (FIG. 6A)", "result": "about 21 mmHg"}, {"measurement": "mean PAP measurement at time (t1)", "setting": "week 1, 80 mg furosemide, t1 prior to medication (FIG. 6A)", "result": "about 35 mmHg"}, {"measurement": "mean PAP measurements at time (t2) and time (t3) compared with week 1", "setting": "week 2, 80 mg furosemide (FIG. 6B)", "result": "similar"}, {"measurement": "mean PAP measurement after medication", "setting": "week 2, 80 mg furosemide, after medication (FIG. 6B)", "result": "about 19 mmHg"}, {"measurement": "mean PAP measurement at time (t1)", "setting": "week 2, 80 mg furosemide, t1 prior to medication (FIG. 6B)", "result": "about 31 mmHg"}, {"measurement": "diuretic profile in the patient", "setting": "week 10, 80 mg furosemide (FIG. 6C)", "result": "early signs of developing diuretic resistance"}, {"measurement": "mean PAP measurement at time (t1)", "setting": "week 10, 80 mg furosemide, prior to ingestion of the medication (FIG. 6C)", "result": "about 31 mmHg"}, {"measurement": "mean PAP measurement after medication", "setting": "week 10, 80 mg furosemide, time (t2) and time (t3) (FIG. 6C)", "result": "about 27 mmHg"}]}]}
